The target in the test is T1, human PDE2A1 (Homo sapiens, UniProt O00408).
T1 construct: GST; purchased BPS Bioscience (San Diego, Calif.) 60020; host or cells: insect cells
As to the kind of experiment: IMAP FP PDE assay, human PDE2A1. Type of test: biochemical. To be noted: Lab B; read-out: Human PDE2 Ki (nM) Lab B. As to the method: Selectivity for PDE2, as compared to other PDE families, was assessed using the IMAP® technology. Human PDE10A2 enzyme was prepared from cytosolic fractions of transiently transfected HEK cells. All other PDE's were GST Tag human enzyme expressed in insect cells and were obtained from BPS Bioscience (San Diego, Calif.): PDE1A (Cat#60010), human PDE2A1 (Cat#60020), PDE3A (Cat#60030), PDE4A1A (Cat#60040), PDE5A1 (Cat#60050), PDE6C (Cat#60060), PDE7A (Cat#60070), PDE8A1 (Cat#60080), PDE9A2 (Cat#60090), PDE11A4 (Cat#60110).
Assays for PDE 1 through 11 were performed in parallel at room temperature in 384-well microtiter plates with an incubation volume of 20.2 μL. Solutions of test compounds were prepared in DMSO and serially diluted with DMSO to yield 30 μL of each of ten solutions differing by 3-fold in concentration, at 32 serial dilutions per plate. […] A Labcyte POD 810 (Labcyte, Sunnyvale, Calif.) was used to dispense 200 nL from each well of the titration plate to make eleven copies of the assay plate for each titration, one copy for each PDE enzyme. A solution of each enzyme (dilution from aliquots, sufficient to produce 20% substrate conversion) and a separate solution of FAM-labeled cAMP or FAM-labeled cGMP from Molecular Devices (Sunnyvale, Calif., product # R7506 or cGMP#R7508), at a final concentration of 50 nM were made in the assay buffer (10 mM Tris HCl, pH 7.2, 10 mM MgCl2, 0.05% NaN3 0.01% Tween-20, and 1 mM DTT). Note that the substrate for PDE2 is 50 nM FAM cAMP containing 1000 nM of cGMP. The enzyme and the substrate were then added to the assay plates in two consecutive additions of 10 μL and then shaken to mix. The reaction was allowed to proceed at room temperature for 60 minutes. A binding solution was then made from the kit components, comprised of 80% Solution A, 20% Solution B and binding reagent at a volume of 1/600 the total binding solution. The enzymatic reaction was stopped by addition of 60 μL of the binding solution to each well of the assay plate. The plates were sealed and shaken for 10 seconds. The plates were incubated at room temperature for one hour, then the parallel and perpendicular fluorescence was measured using a Tecan Genios Pro plate reader (Tecan, Switzerland). The apparent inhibition constants for the compounds against all 11 PDE's was determined from the parallel and perpendicular fluorescent readings as described for PDE10 FP assay using the following apparent KM values for each enzyme and substrate combination: PDE1A (FAM cGMP) 70 nM, human PDE2A1 (FAM cAMP) 10,000 nM, PDE3A (FAM cAMP) 50 nM, PDE4A1A (FAM cAMP) 1500 nM, PDE5A1 (FAM cGMP) 400 nM, PDE6C (FAM cGMP) 700 nM, PDE7A (FAM cAMP) 150 nM, PDE8A1 (FAM cAMP) 50 nM, PDE9A2 (FAM cGMP) 60 nM, PDE10A2 (FAM cAMP) 150 nM, PDE11A4 (FAM cAMP) 1000 nM. The intrinsic PDE2 inhibitory activity of a compound which may be used in accordance with the present invention may be determined by these assays.

Bounds are passed on as bounds.

T1 sequence (O00408 1-920 isoform O00408-2): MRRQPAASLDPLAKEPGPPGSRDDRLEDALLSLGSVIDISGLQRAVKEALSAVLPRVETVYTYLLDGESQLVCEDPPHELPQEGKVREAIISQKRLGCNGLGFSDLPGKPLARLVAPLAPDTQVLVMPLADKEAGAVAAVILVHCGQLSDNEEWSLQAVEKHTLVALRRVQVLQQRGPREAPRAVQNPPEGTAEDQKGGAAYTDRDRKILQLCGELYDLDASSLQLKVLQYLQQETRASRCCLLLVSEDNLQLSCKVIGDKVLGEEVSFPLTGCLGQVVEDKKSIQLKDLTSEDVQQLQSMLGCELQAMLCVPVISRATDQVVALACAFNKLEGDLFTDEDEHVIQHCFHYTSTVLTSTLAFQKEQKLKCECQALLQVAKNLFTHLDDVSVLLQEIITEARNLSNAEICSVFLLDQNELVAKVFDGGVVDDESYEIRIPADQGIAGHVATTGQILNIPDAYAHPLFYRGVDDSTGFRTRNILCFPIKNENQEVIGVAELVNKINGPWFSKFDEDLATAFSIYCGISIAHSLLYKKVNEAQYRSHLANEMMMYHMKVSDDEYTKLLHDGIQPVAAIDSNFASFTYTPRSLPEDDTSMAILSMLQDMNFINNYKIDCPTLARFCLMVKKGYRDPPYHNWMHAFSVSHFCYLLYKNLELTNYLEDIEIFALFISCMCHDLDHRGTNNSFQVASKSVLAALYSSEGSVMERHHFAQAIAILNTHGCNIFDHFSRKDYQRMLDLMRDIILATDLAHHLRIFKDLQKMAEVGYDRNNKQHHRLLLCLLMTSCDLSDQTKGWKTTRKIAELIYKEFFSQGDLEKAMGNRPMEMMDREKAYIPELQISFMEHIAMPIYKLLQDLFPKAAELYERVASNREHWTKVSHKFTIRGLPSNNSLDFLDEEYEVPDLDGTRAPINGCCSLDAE

As for `Cc1nc2c(c(CC(F)(F)F)nn2C(c2ccc(C(F)(F)F)c(F)c2)C(C)(C)C)c(=O)[nH]1` (single isomer, unassigned) [Example 61, (S)- or (R)-1-(1-(3-Fluoro-4-(trifluoromethyl)phenyl)-2,2-dimethylpropyl)-6-methyl-3-(2,2,2-trifluoroethyl)-1H-pyrazolo[3,4-d]pyrimidin-4(5H)-one], the Ki (commonly the dissociation constant of the complex between target and ligand, obtained from inhibition or displacement) was determined as 55 nM.
The value for `CCC(c1ccc(OC(F)(F)F)cc1)n1nc(CO)c2c(=O)[nH]c(C)nc21` (single isomer, unassigned) [Example 134, (R)- or (S)-3-(Hydroxymethyl)-6-methyl-1-(1-(4-(trifluoro-methoxy)phenyl)propyl)-1H-pyrazolo[3,4-d]pyrimidin-4(5H)-one] was 51 nM; that for `CC(c1ccc(C(F)(F)F)cc1)n1nc(CO)c2c(=O)[nH]c(C3CC3)nc21` (single isomer, unassigned) [Example 300, (S)- or (R)-6-Cyclopropyl-3-(hydroxymethyl)-1-{1-[4-(trifluoromethyl)phenyl]ethyl}-1,5-dihydro-4H-pyrazolo[3,4-d]pyrimidin-4-one] was 2.8 nM.
Next, `Cc1nc2c(c(CO)nn2C(CC(F)(F)F)c2ccc(C(F)(F)F)cc2)c(=O)[nH]1` (single isomer, unassigned) [Example 97, (S)- or (R)-3-(Hydroxymethyl)-6-methyl-1-(3,3,3-trifluoro-1-(4-(trifluoromethyl)phenyl)propyl)-1H-pyrazolo[3,4-d]pyrimidin-4(5H)-one]: 467 nM.
Next, `CCCc1nc2c(c(CO)nn2C(C)c2ccc(C(F)(F)F)cc2)c(=O)[nH]1` (single isomer, unassigned) [Example 304, (S)- or (R)-3-(Hydroxymethyl)-6-propyl-1-(1-(4-(trifluoromethyl)phenyl)ethyl)-1,5-dihydro-4H-pyrazolo[3,4-d]pyrimidin-4-one]: 263 nM; `Cc1nc2c(c(CO)nn2C(C)c2ccc(C3(C)CC3)cc2)c(=O)[nH]1` (single isomer, unassigned) [Example 144, (S)- or (R)-3-(Hydroxymethyl)-6-methyl-1-(1-(4-(1-methylcyclopropyl)phenyl)ethyl)-1H-pyrazolo[3,4-d]pyrimidin-4(5H)-one]: 0.59 nM.
For `Cc1nc2c(c(C(=O)O)nn2[C@@H](C)c2ccc(C(F)(F)F)cc2)c(=O)[nH]1` [Example 323, (S)-6-Methyl-4-oxo-1-(1-(4-(trifluoromethyl)phenyl)ethyl)-4,5-dihydro-1H-pyrazolo[3,4-d]pyrimidine-3-carboxylic acid], the Ki turned out to be 798 nM.
Next, `CCC(c1ccc(OC(F)(F)F)cc1)n1nc(CO)c2c(=O)[nH]c(C)nc21` (single isomer, unassigned) [Example 135, (S)- or (R)-3-(Hydroxymethyl)-6-methyl-1-(1-(4-(trifluoro-methoxy)phenyl)propyl)-1H-pyrazolo[3,4-d]pyrimidin-4(5H)-one]: 1 nM; `Cc1nc2c(c(C(F)F)nn2C(c2ccc(C(F)(F)F)cc2)C(C)C)c(=O)[nH]1` (single isomer, unassigned) [Example 171, (R)- or (S)-3-(Difluoromethyl)-6-methyl-1-(2-methyl-1-(4-(trifluoromethyl)phenyl)propyl)-1H-pyrazolo[3,4-d] pyrimidin-4(5H)-one]: 43 nM.
The value for `Cc1nc2c(c(OCC(F)(F)F)nn2C(C)c2ccc(C(F)(F)F)cc2)c(=O)[nH]1` (single isomer, unassigned) [Example 287] was 375 nM.
With `Cc1nc2c(c(CC(O)C(F)(F)F)nn2C(C)c2ccc(C(F)(F)F)cc2)c(=O)[nH]1` (single isomer, unassigned) [Example 240], the Ki was found to be 434 nM.
The value for `CC(c1ccc(S(F)(F)(F)(F)F)cc1)n1nc(CO)c2c(=O)[nH]c(C3CC3)nc21` (single isomer, unassigned) [Example 315, (R)- or (S)-6-Cyclopropyl-3-(hydroxymethyl)-1-{1-[4-(pentafluoro-sulfanyl)-phenyl]-ethyl}-1,5-dihydro-4H-pyrazolo[3,4-d]pyrimidin-4-one] was 3.3 nM; that for `Cc1nc2c(c(CO)nn2C(C)c2ccc(C(F)(F)F)s2)c(=O)[nH]1` (single isomer, unassigned) [Example 156, (S)- or (R)-3-(Hydroxymethyl)-6-methyl-1-(1-(5-(trifluoromethyl)thiophen-2-yl)ethyl)-1H-pyrazolo[3,4-d]pyrimidin-4(5H)-one] was 8.5 nM.
The value for `Cc1nc2c(c(CO)nn2C(C)c2ccc(CC(F)(F)F)cc2)c(=O)[nH]1` (single isomer, unassigned) [Example 123, (S) or (R)-3-(Hydroxymethyl)-6-methyl-1-(1-(4-(2,2,2-trifluoroethyl)phenyl)ethyl)-1H-pyrazolo[3,4-d]pyrimidin-4(5H)-one] was 2.6 nM; that for `Cc1nc2c(c(CO)nn2C(C)c2ccc(C(F)(F)F)c(C)c2)c(=O)[nH]1` (single isomer, unassigned) [Example 107, (S)- or (R)-3-(Hydroxymethyl)-6-methyl-1-(1-(3-methyl-4-(trifluoromethyl)phenyl)ethyl)-1H-pyrazolo[3,4-d]pyrimidin-4(5H)-one] was 4.5 nM.
The value for `CC(=O)c1ccc(C(C)n2nc(CO)c3c(=O)[nH]c(C)nc32)cc1` (single isomer, unassigned) [Example 290] was over 2960 nM; that for `CC(=O)Nc1nn(C(C)c2ccc(C(F)(F)F)cc2)c2nc(C)[nH]c(=O)c12` (single isomer, unassigned) [Example 259] was about 2120 nM.
Turning to `Cc1nc2c(c(CC(C)(C)O)nn2C(C)c2ccc(C(F)(F)F)cc2)c(=O)[nH]1` (stereo not drawn) [Example 247, 3-(2-Hydroxy-2-methylpropyl)-6-methyl-1-(1-(4-(trifluoromethyl)phenyl)ethyl)-1H-pyrazolo[3,4-d]pyrimidin-4(5H)-one], the Ki is about 567 nM.
With `COCC(c1ccc(C(F)(F)F)cc1)n1nc(CO)c2c(=O)[nH]c(C)nc21` (single isomer, unassigned) [Example 101, (S)- or (R)-3-(Hydroxymethyl)-1-(2-methoxy-1-(4-(trifluoromethyl)phenyl)ethyl)-6-methyl-1H-pyrazolo[3,4-d]pyrimidin-4(5H)-one], the Ki was found to be 13 nM.
Next, `Cc1nc2c(c(CO)nn2C(C)c2c(F)cc(C(F)(F)F)cc2F)c(=O)[nH]1` (single isomer, unassigned) [Example 137]: 121 nM; `CNC(=O)c1nn(C(C)c2ccc(C(F)(F)F)cc2)c2nc(C)[nH]c(=O)c12` (single isomer, unassigned) [Example 265]: 375 nM; `Cc1nc2c(c(CC(C)O)nn2C(C)c2ccc(C(F)(F)F)cc2)c(=O)[nH]1` (single isomer, unassigned) [Example 244]: 386 nM.
The value for `Cc1nc2c(c(CO)nn2C(c2ccc(C(F)(F)F)c(F)c2)C2(C)CC2)c(=O)[nH]1` (single isomer, unassigned) [Example 15, (S)- or (R)-1-((3-Fluoro-4-(trifluoromethyl)phenyl)(1-methylcyclopropyl)methyl)-3-(hydroxymethyl)-6-methyl-1H-pyrazolo[3,4-d]pyrimidin-4(5H)-one] was 154 nM.
The value for `Cc1nc2c(c(C(F)F)nn2C(C)c2ccc(C(F)(F)F)c(F)c2)c(=O)[nH]1` (single isomer, unassigned) [Example 167, (R)- or (S)-3-(Difluoromethyl)-1-(1-(3-fluoro-4-(trifluoromethyl)phenyl)ethyl)-6-methyl-1H-pyrazolo[3,4-d]pyrimidin-4(5H)-one] was 256 nM.
